{"source": "ChEMBL document CHEMBL4480365", "about": "“Coupling the cell-penetrating peptides transportan and transportan 10 to primaquine enhances its activity against liver-stage malaria parasites” (Medchemcomm, 2019)", "key": {"Huh-7": {"tested_on": "Huh-7", "assay": "Cytotoxicity against human HuH7 cells assessed as reduction in cell viability at 1 to 10 uM", "type": "cell-based", "conditions": "huh-7, 10 µM"}, "Plasmodium berghei": {"tested_on": "Plasmodium berghei", "assay": "Antiplasmodial activity against Plasmodium berghei liver-stage forms at 1 to 10 uM", "type": "functional, organism-based"}}, "note": "Calls of active or inactive are those of the source. The rule behind the calls is not given here. Starred links: 1 amine or outer side, 2 acyl side, 3 side chain; linkers in the order of their positions; H or OH if unused. Residues, ends and D or L forms follow the SMILES beside them. *: point of attachment. X1 = COc1cc(NC(C)CCCNC(=O)C(N)CSSCC(N)C(=O)NC(=O)[C@H](CC(C)C)N*)c2ncccc2c1; Primaquine = COc1cc(NC(C)CCCN*)c2ncccc2c1; Suc = O=C(CCC(=O)[*:2])[*:1]", "data": [{"compound": "H-RKKRRQRRRPPQ-OH", "values": [{"measurement": "Activity", "setting": "Huh-7", "value": "Non-Toxic"}, {"measurement": "Activity", "setting": "Plasmodium berghei", "value": "Active"}]}, {"compound": "CC[C@H](C)[C@H](NC(=O)[C@H](CCCCN)NC(=O)[C@H](CCCCN)NC(=O)[C@H](C)NC(=O)[C@H](CC(C)C)NC(=O)[C@H](C)NC(=O)[C@H](C)NC(=O)[C@H](CC(C)C)NC(=O)[C@H](C)NC(=O)[C@H](CCCCN)NC(=O)[C@H](CC(C)C)NC(=O)[C@H](CC(N)=O)NC(=O)[C@@H](NC(=O)[C@H](CCCCN)NC(=O)CNC(=O)[C@H](CC(C)C)NC(=O)[C@H](CC(C)C)NC(=O)[C@H](Cc1ccc(O)cc1)NC(=O)CNC(=O)[C@H](C)N)[C@@H](C)CC)C(=O)N[C@@H](CC(C)C)C(=O)NC(=O)C(N)CSSCC(N)C(=O)NCCCC(C)Nc1cc(OC)cc2cccnc12", "note": "(some centres undefined) (H-AGYLLGKINLKALAALAKKI-X1)", "values": [{"measurement": "Activity", "setting": "Huh-7", "value": "Toxic"}, {"measurement": "Activity", "setting": "Plasmodium berghei", "value": "Active"}]}, {"compound": "COc1cc(NC(C)CCCN)c2ncccc2c1", "note": "(centres undefined) [PRIMAQUINE]", "values": [{"measurement": "Activity", "setting": "Huh-7", "value": "Non-Toxic"}, {"measurement": "Activity", "setting": "Plasmodium berghei", "value": "Active"}]}, {"compound": "CC[C@H](C)[C@H](NC(=O)[C@H](CCCCN)NC(=O)[C@H](CCCCN)NC(=O)[C@H](C)NC(=O)[C@H](CC(C)C)NC(=O)[C@H](C)NC(=O)[C@H](C)NC(=O)[C@H](CC(C)C)NC(=O)[C@H](C)NC(=O)[C@H](CCCCN)NC(=O)[C@H](CC(C)C)NC(=O)[C@H](CC(N)=O)NC(=O)[C@@H](NC(=O)[C@H](CCCCN)NC(=O)CNC(=O)[C@H](CC(C)C)NC(=O)[C@H](CC(C)C)NC(=O)[C@H](Cc1ccc(O)cc1)NC(=O)CNC(=O)[C@H](C)NC(=O)[C@H](CO)NC(=O)[C@H](CC(N)=O)NC(=O)[C@H](CC(C)C)NC(=O)[C@@H](NC(=O)[C@H](Cc1c[nH]c2ccccc12)NC(=O)CN)[C@@H](C)O)[C@@H](C)CC)C(=O)N[C@@H](CC(C)C)C(=O)O", "values": [{"measurement": "Activity", "setting": "Huh-7", "value": "Non-Toxic"}, {"measurement": "Activity", "setting": "Plasmodium berghei", "value": "inactive"}]}, {"compound": "COc1cc(NC(C)CCCNC(=O)CCC(=O)N[C@@H](CCCNC(=N)N)C(=O)N[C@@H](CCCCN)C(=O)N[C@@H](CCCCN)C(=O)N[C@@H](CCCNC(=N)N)C(=O)N[C@@H](CCCNC(=N)N)C(=O)N[C@@H](CCC(N)=O)C(=O)N[C@@H](CCCNC(=N)N)C(=O)N[C@@H](CCCNC(=N)N)C(=O)N[C@@H](CCCNC(=N)N)C(=O)N2CCC[C@H]2C(=O)N2CCC[C@H]2C(=O)N[C@@H](CCC(N)=O)C(=O)O)c2ncccc2c1", "note": "(some centres undefined) ({Primaquine-Suc}-RKKRRQRRRPPQ-OH)", "values": [{"measurement": "Activity", "setting": "Huh-7", "value": "Non-Toxic"}, {"measurement": "Activity", "setting": "Plasmodium berghei", "value": "Active"}]}, {"compound": "CC[C@H](C)[C@H](NC(=O)[C@H](CCCCN)NC(=O)[C@H](CCCCN)NC(=O)[C@H](C)NC(=O)[C@H](CC(C)C)NC(=O)[C@H](C)NC(=O)[C@H](C)NC(=O)[C@H](CC(C)C)NC(=O)[C@H](C)NC(=O)[C@H](CCCCN)NC(=O)[C@H](CC(C)C)NC(=O)[C@H](CC(N)=O)NC(=O)[C@@H](NC(=O)[C@H](CCCCN)NC(=O)CNC(=O)[C@H](CC(C)C)NC(=O)[C@H](CC(C)C)NC(=O)[C@H](Cc1ccc(O)cc1)NC(=O)CNC(=O)[C@H](C)N)[C@@H](C)CC)C(=O)N[C@@H](CC(C)C)C(=O)O", "values": [{"measurement": "Activity", "setting": "Huh-7", "value": "Non-Toxic"}, {"measurement": "Activity", "setting": "Plasmodium berghei", "value": "Active"}]}, {"compound": "CC[C@H](C)[C@H](NC(=O)[C@H](CCCCN)NC(=O)[C@H](CCCCN)NC(=O)[C@H](C)NC(=O)[C@H](CC(C)C)NC(=O)[C@H](C)NC(=O)[C@H](C)NC(=O)[C@H](CC(C)C)NC(=O)[C@H](C)NC(=O)[C@H](CCCCN)NC(=O)[C@H](CC(C)C)NC(=O)[C@H](CC(N)=O)NC(=O)[C@@H](NC(=O)[C@H](CCCCN)NC(=O)CNC(=O)[C@H](CC(C)C)NC(=O)[C@H](CC(C)C)NC(=O)[C@H](Cc1ccc(O)cc1)NC(=O)CNC(=O)[C@H](C)NC(=O)CCC(=O)NCCCC(C)Nc1cc(OC)cc2cccnc12)[C@@H](C)CC)C(=O)N[C@@H](CC(C)C)C(=O)O", "note": "(some centres undefined)", "values": [{"measurement": "Activity", "setting": "Huh-7", "value": "Non-Toxic"}, {"measurement": "Activity", "setting": "Plasmodium berghei", "value": "Active"}]}, {"compound": "H-FFLIPKGGRKKRRQRRRPPQ-OH", "values": [{"measurement": "Activity", "setting": "Huh-7", "value": "Non-Toxic"}, {"measurement": "Activity", "setting": "Plasmodium berghei", "value": "Active"}]}, {"compound": "CC[C@H](C)[C@H](NC(=O)[C@H](CCCNC(=N)N)NC(=O)[C@@H](NC(=O)[C@H](C)NC(=O)[C@@H](NC(=O)[C@@H](NC(=O)[C@H](CC(C)C)NC(=O)[C@H](CCCNC(=N)N)NC(=O)[C@@H](NC(=O)CCC(=O)NCCCC(C)Nc1cc(OC)cc2cccnc12)C(C)C)[C@@H](C)CC)C(C)C)C(C)C)C(=O)N[C@@H](Cc1c[nH]c2ccccc12)C(=O)N[C@@H](CCCNC(=N)N)C(=O)N[C@@H](CCCNC(=N)N)C(=O)O", "note": "(some centres undefined) ({Primaquine-Suc}-VRLIVAVRIWRR-OH)", "values": [{"measurement": "Activity", "setting": "Huh-7", "value": "Non-Toxic"}, {"measurement": "Activity", "setting": "Plasmodium berghei", "value": "inactive"}]}, {"compound": "CC[C@H](C)[C@H](NC(=O)[C@H](CC(C)C)NC(=O)[C@H](Cc1ccccc1)NC(=O)[C@H](Cc1ccccc1)NC(=O)CCC(=O)NCCCC(C)Nc1cc(OC)cc2cccnc12)C(=O)N1CCC[C@H]1C(=O)N[C@@H](CCCCN)C(=O)NCC(=O)NCC(=O)N[C@@H](CCCNC(=N)N)C(=O)N[C@@H](CCCCN)C(=O)N[C@@H](CCCCN)C(=O)N[C@@H](CCCNC(=N)N)C(=O)N[C@@H](CCCNC(=N)N)C(=O)N[C@@H](CCC(N)=O)C(=O)N[C@@H](CCCNC(=N)N)C(=O)N[C@@H](CCCNC(=N)N)C(=O)N[C@@H](CCCNC(=N)N)C(=O)N1CCC[C@H]1C(=O)N1CCC[C@H]1C(=O)N[C@@H](CCC(N)=O)C(=O)O", "note": "(some centres undefined) ({Primaquine-Suc}-FFLIPKGGRKKRRQRRRPPQ-OH)", "values": [{"measurement": "Activity", "setting": "Huh-7", "value": "Non-Toxic"}]}]}
